Here are results for five compounds from patent US20150355163A1, “T-TYPE CALCIUM CHANNEL INHIBITORS FOR TREATMENT OF CANCER” (TAU THERAPEUTICS LLC, priority 2013, published 2015).

The test system of data set [1] is T1, T-type Ca^2+ channel.
T1 construct: other: cell membrane potential about −90 mV, in words; other: in words; selectivity for the −90 mV state relative to −40 mV; other: cell membrane potential about −30 mV to −60 mV
In words: Inhibition of T-type Ca^2+ channel activity in a cell with the membrane potential held (patch-clamp). It is filed as cell-based. The settings on record: in words; for inhibition of T-type Ca^2+ channel activity: cell membrane potential about −90 mV. From the text:
This disclosure further provides methods of identifying compounds that inhibit T-type Ca^2+ channel activity in a cell when the cell membrane potential is about −90 mV. These methods include determining the ability of a compound to inhibit T-type Ca^2+ channel activity in a cell when the cell membrane potential is held at about −90 mV. The membrane potential can be held at about −90 mV by techniques known in the art, such as the patch-clamp technique. The ability of a compound to inhibit T-type Ca^2+ channel activity in a cell when the cell membrane potential is about −90 mV can be determined, for example, by determining the ability of the compound to prevent growth factor-stimulated calcium entry into the cell. Calcium entry into the cell can be determined by measuring increases in levels of intracellular calcium, such as by use of a calcium sensitive fluorescent dye.
This disclosure further provides methods of identifying compounds that inhibit T-type Ca^2+ channel activity in a cell when the cell membrane potential is about −90 mV. Such compounds can be identified by measuring inhibition of T-type Ca^2+ channel activity in a cell using standard electrophysiological methods such as patch clamp or by measuring the ability of a pharmaceutical agent to block calcium entry into a cell, such as a cancer cell, when that cell is stimulated by a mitogen, such as a growth factor. Such methods are disclosed, for example, in Densmore, et al., FEBS Lett. 312:161-164 (1992); Haverstick, et al., Mol. Biol. Cell 4:173-184 (1993); and Gomora et al., J. Pharmacol. Exp. Ther. 292:96-103 (2000), the contents of which are incorporated by reference. Calcium entry can be determined by methods such as intracellular entrapment of a Ca^2+ sensitive fluorescent dye.
In some embodiments, the cell membrane potential can be controlled using a patch-clamp technique. In some embodiments cell membrane potential can be controlled using any other technique described herein or known in the art.

For a further data set, the system named is cancer cells. The data set can be described thus: Cancer cell proliferation. The settings on record: in words. The class given is cell-based.
Data set [2] relates to T1, T-type Ca^2+ channel. Conditions: cited from earlier work; for potency for inhibition of the T-type calcium channel: in words; for IC50: read-out: IC50 for inhibiting T-type Ca^2+ channel activity.
Data set [3] deals with T-type Ca^2+ channel. The settings on record: ratio; cited from earlier work.
Another data set relates to human glioblastoma. The settings on record: seven day course of mibefradil, then five day course of temozolomide; cited from earlier work.
For another data set, the target named is CYP 450 3A4 (Homo sapiens, UniProt P08684). Conditions: in words; cited from earlier work.
Sequence of CYP 450 3A4 (P08684 whole entry): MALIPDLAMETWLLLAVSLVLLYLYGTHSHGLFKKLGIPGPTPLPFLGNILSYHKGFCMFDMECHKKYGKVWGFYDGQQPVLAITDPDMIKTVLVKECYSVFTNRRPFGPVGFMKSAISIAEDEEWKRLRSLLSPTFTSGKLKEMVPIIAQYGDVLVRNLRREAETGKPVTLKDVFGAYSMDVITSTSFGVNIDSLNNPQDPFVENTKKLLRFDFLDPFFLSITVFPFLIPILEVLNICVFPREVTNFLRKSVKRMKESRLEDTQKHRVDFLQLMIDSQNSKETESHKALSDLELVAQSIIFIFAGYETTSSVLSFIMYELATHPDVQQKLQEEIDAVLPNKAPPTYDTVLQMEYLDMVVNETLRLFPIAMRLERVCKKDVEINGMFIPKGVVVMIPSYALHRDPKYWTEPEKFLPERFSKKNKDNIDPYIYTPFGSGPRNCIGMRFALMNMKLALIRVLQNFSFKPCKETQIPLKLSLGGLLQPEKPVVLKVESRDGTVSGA
For data set [4] the following is noted: used by almost a million patients; cited from earlier work.

“Also recorded” adds a separate entry of the source. Like-named read-outs stand apart in the source and are kept apart here. Where only a bound is given, the exact number is not on record here.

For the compound `C[C@@H](NC(=O)Cc1ccc(C2CC2)cc1)c1ccc(OCC(F)(F)F)cn1` [TTA-A2], in the data set on T-type Ca^2+ channel [1], the “selectivity for the −90 mV state relative to −40 mV” value is “decreased selectivity”. For the same compound, the anti-proliferative activity entry with cancer cells is on record as “without anti-proliferative activity; also recorded: little or no effect”. The “potency for inhibition of the T-type calcium channel” value in the data set with T-type Ca^2+ channel [2] is reported as “high potency”.
The IC50 is the concentration that inhibits the measured activity by half. In the case of `COCC(=O)O[C@]1(CCN(C)CCCc2nc3ccccc3[nH]2)CCc2cc(F)ccc2[C@@H]1C(C)C` [mibefradil], in the data set on T-type Ca^2+ channel [1], the “inhibition of T-type Ca^2+ channel activity” value is listed as “inhibit”. Moreover, the “selectivity for the −90 mV state relative to −40 mV” value in the data set on T-type Ca^2+ channel [1] was “preferentially blocks the −90 mV state”. Further, the results for the anti-proliferative activity result in the data set with cancer cells and with cancer cells (listed as Mibefradil) were “inhibit cancer cell proliferation” and “antiproliferative”, respectively. Moreover, the “preference for blocking channels at about −30 mV to −60 mV over −90 mV” value with T-type Ca^2+ channel [3] is given as 10 to 1. The IC50 is at least 0.1 µM in the data set on T-type Ca^2+ channel [2] (cell membrane potential about −30 mV to −60 mV) and around 1 µM in the data set with T-type Ca^2+ channel [2] (cell membrane potential of −80 mV to −90 mV). Also, the “effect on the cytotoxic effect of temozolomide” value in the data set on human glioblastoma is “significantly increased; also recorded: restored the sensitivity to temozolomide”. Also, at CYP 450 3A4, the “inhibition of CYP 450 3A4” value was “inhibition”. Further, the tolerability result in data set [4] is recorded as “remarkably well tolerated”.
In the case of `CC(C)c1ccc(CC(=O)N[C@H](C)c2ccc(OCC(F)(F)F)cn2)cc1` [MK-8998], the “selectivity for the −90 mV state relative to −40 mV” value with T-type Ca^2+ channel [1] is recorded as “decreased selectivity”. Also, the anti-proliferative activity result in the data set with cancer cells is reported as “without anti-proliferative activity; also recorded: little or no effect”. Besides, the “potency for inhibition of the T-type calcium channel” value in the data set with T-type Ca^2+ channel [2] is “high potency”.
For the compound `COc1ccc(CCN2CCC[C@H]2COC(c2ccccc2)c2ccc(Cl)cc2)cc1` (stereo partly drawn) [TH-1177], the “inhibition of T-type Ca^2+ channel activity” value in the data set with T-type Ca^2+ channel [1] is “inhibit”.
As for `O=c1[nH]c2cc(Cl)ccc2n1C1CCN(CCCC(c2ccc(F)cc2)c2ccc(F)cc2)CC1` [chlopimozide], the anti-proliferative activity result in the data set on cancer cells was “anti-proliferative”.
